Source: patent US20230167118A1, “DEGRADATION OF BRUTON'S TYROSINE KINASE (BTK) BY CONJUGATION OF BTK INIDBITORS WITH E3 LIGASE LIGAND AND METHODS OF USE” (BEIGENE, LTD., priority 2020, published 2023)
Where a name gives a salt, the structure may show the parent alone.

Assays:
HEK-293 cells = experiment: HEK-293 Cytotoxicity Assay (CellTiter-Glo); type: cell-based; details: Homo sapiens, HEK293, 72 h incubation, CellTiter-Glo luminescence
In short: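 HEK-293 cells treated 72 h with 8 concentrations (4-fold dilutions, 0.2% DMSO final). Viability read by CellTiter-Glo luminescence; IC50 from four-parameter logistic fit of % inhibition.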

BTK = target: T1, BTK (Homo sapiens, UniProt Q06187); experiment: Cell Degradation: BTK degradation in TMD-8 cells, HTRF assay; type: cell-based; details: 6 h treatment, IC50 (DC50) of BTK degradation
T1 construct: High control=Cell group with added DMSO and without compound, indicating microplate readings without BTK degradation; endogenous in cells; host or cells: TMD-8 cells
In short: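 TMD-8 cells treated 6 h with 8-dose 6-fold dilutions in 0.2% DMSO, then lysed and BTK quantified by HTRF (665/620 nm). Degradation % normalised to high/low controls; DC50 from four-parameter fit, Dmax as maximal degradation.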

T1 sequence (Q06187 whole entry): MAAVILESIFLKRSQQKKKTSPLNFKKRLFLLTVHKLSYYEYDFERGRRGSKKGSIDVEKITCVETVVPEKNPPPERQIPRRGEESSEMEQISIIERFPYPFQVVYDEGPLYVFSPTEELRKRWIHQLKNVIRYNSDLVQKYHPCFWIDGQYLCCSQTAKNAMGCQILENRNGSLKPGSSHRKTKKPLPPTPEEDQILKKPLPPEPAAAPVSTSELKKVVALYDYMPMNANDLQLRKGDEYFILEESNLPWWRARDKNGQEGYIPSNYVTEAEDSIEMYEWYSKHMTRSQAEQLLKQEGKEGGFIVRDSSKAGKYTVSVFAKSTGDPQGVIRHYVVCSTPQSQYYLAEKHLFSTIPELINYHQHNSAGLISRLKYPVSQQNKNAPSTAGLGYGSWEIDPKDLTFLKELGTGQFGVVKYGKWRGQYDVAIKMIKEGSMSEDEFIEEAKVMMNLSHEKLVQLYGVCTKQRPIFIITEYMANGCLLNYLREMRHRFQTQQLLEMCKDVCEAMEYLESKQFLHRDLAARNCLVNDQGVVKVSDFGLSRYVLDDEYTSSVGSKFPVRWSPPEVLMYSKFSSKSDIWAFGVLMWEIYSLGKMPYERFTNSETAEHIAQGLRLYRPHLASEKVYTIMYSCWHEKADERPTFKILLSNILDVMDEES

| DC50 (BTK) [nM] | SMILES | IC50 (HEK-293 cells) [nM] |
| --- | --- | --- |
| 1.8 | Cc1cc(-c2ncnc3[nH]c(-c4ccc(N5CCN(CC6CCN(c7ccc(N8CCC(=O)NC8=O)cc7)CC6)CC5)cc4)cc23)ccc1CNC(=O)c1cnc(C(C)(C)C)s1 [Example 47, 2-(tert-butyl)-N-(4-(6-(4-(4-((1-(4-(2,4-dioxotetrahydropyrimidin-1(2H)-yl)phenyl)piperidin-4-yl)methyl)piperazin-1-yl)phenyl)-7H-pyrrolo[2,3-d]pyrimidin-4-yl)-2-methylbenzyl)thiazole-5-carboxamide] | > 10000 |
| 1.7 | Cc1cc(-c2ncnc3[nH]c(-c4ccc(N5CCN(CC6CCN(c7ccc(C8CCC(=O)NC8=O)cc7)CC6)CC5)nc4)cc23)ccc1[C@@H](C)NC(=O)c1nc(C(C)(C)C)no1 (stereo partly drawn) [Example 48, 3-(tert-butyl)-N-((1R)-1-(4-(6-(6-(4-((1-(4-(2,6-dioxopiperidin-3-yl)phenyl)piperidin-4-yl)methyl)piperazin-1-yl)pyridin-3-yl)-7H-pyrrolo[2,3-d]pyrimidin-4-yl)-2-methylphenyl)ethyl)-1,2,4-oxadiazole-5-carboxamide] | > 10000 |
| 1.3 | Cc1cc(-c2ncnc3[nH]c(-c4ccc(OC5CCN(CC6CCN(c7ccc(N8CCC(=O)NC8=O)cc7)CC6)CC5)cc4)cc23)ccc1CNC(=O)c1nc(C(C)(C)C)no1 [Example 49, 3-(tert-butyl)-N-(4-(6-(4-((1-((1-(4-(2,4-dioxotetrahydropyrimidin-1(2H)-yl)phenyl)piperidin-4-yl)methyl)piperidin-4-yl)oxy)phenyl)-7H-pyrrolo[2,3-d]pyrimidin-4-yl)-2-methylbenzyl)-1,2,4-oxadiazole-5-carboxamide] | > 10000 |
| 1.1 | Cc1cc(-c2ncnc3[nH]c(-c4ccc(N5CCN(CC6CCN(c7ccc(N8CCC(=O)NC8=O)cc7)CC6)CC5)cc4)cc23)ccc1CNC(=O)c1noc(C(C)(C)C(F)(F)F)n1 [Example 50, N-(4-(6-(4-(4-((1-(4-(2,4-dioxotetrahydropyrimidin-1(2H)-yl)phenyl)piperidin-4-yl)methyl)piperazin-1-yl)phenyl)-7H-pyrrolo[2,3-d]pyrimidin-4-yl)-2-methylbenzyl)-5-(1,1,1-trifluoro-2-methylpropan-2-yl)-1,2,4-oxadiazole-3-carboxamide] | > 10000 |
| 0.38 | Cc1cc(-c2ncnc3[nH]c(-c4ccc(N5CCN(CC6CCN(c7ccc(N8CCC(=O)NC8=O)cc7)CC6)CC5)cc4)cc23)ccc1CNC(=O)c1noc(C2(C(F)(F)F)CC2)n1 [Example 51, N-(4-(6-(4-(4-((1-(4-(2,4-dioxotetrahydropyrimidin-1(2H)-yl)phenyl)piperidin-4-yl)methyl)piperazin-1-yl)phenyl)-7H-pyrrolo[2,3-d]pyrimidin-4-yl)-2-methylbenzyl)-5-(1-(trifluoromethyl)cyclopropyl)-1,2,4-oxadiazole-3-carboxamide] | > 10000 |

The next lines start with the molecule.

| SMILES | DC50 (BTK) [nM] | IC50 (HEK-293 cells) [nM] |
| --- | --- | --- |
| Cc1cc(-c2ncnc3[nH]c(-c4ccc(C5CCN(CC6CCN(c7ccc(N8CCC(=O)NC8=O)cc7F)CC6)CC5)cc4)cc23)ccc1CNC(=O)c1nc(C(C)(C)C)no1 [Example 39, 3-(tert-butyl)-N-(4-(6-(4-(1-((1-(4-(2,4-dioxotetrahydropyrimidin-1(2H)-yl)-2-fluorophenyl)piperidin-4-yl)methyl)piperidin-4-yl)phenyl)-7H-pyrrolo[2,3-d]pyrimidin-4-yl)-2-methylbenzyl)-1,2,4-oxadiazole-5-carboxamide Formate] | 1.1 | > 10000 |
| Cc1cc(-c2ncnc3[nH]c(-c4ccc(C5CCN(CC6CCN(c7ccc(N8CCC(=O)NC8=O)cc7)CC6)CC5)cc4)cc23)ccc1CNC(=O)c1cn(C(C)(C)C)nn1 [Example 40, 1-(tert-butyl)-N-(4-(6-(4-(1-((1-(4-(2,4-dioxotetrahydropyrimidin-1(2H)-yl)phenyl)piperidin-4-yl)methyl)piperidin-4-yl)phenyl)-7H-pyrrolo[2,3-d]pyrimidin-4-yl)-2-methylbenzyl)-1H-1,2,3-triazole-4-carboxamide] | 0.63 | > 10000 |
| Cc1cc(-c2ncnc3[nH]c(-c4ccc(N5CCN(CC6CCN(c7ccc(N8CCC(=O)NC8=O)cc7)CC6)CC5)cc4)cc23)ccc1[C@@H](C)NC(=O)c1noc(C(C)(C)C)n1 [Example 41, (R)-5-(tert-butyl)-N-(1-(4-(6-(4-(4-((1-(4-(2,4-dioxotetrahydropyrimidin-1(2H)-yl)phenyl)piperidin-4-yl)methyl)piperazin-1-yl)phenyl)-7H-pyrrolo[2,3-d]pyrimidin-4-yl)-2-methylphenyl)ethyl)-1,2,4-oxadiazole-3-carboxamide] | 1.3 | > 10000 |
| CC(C)(C)c1noc(C(=O)NCc2ccc(-c3ncnc4[nH]c(-c5ccc(N6CCN(CC7CCN(c8ccc(N9CCC(=O)NC9=O)cc8)CC7)CC6)nc5)cc34)cc2F)n1 [Example 42, 3-(tert-butyl)-N-(4-(6-(6-(4-((1-(4-(2,4-dioxotetrahydropyrimidin-1(2H)-yl)phenyl)piperidin-4-yl)methyl)piperazin-1-yl)pyridin-3-yl)-7H-pyrrolo[2,3-d]pyrimidin-4-yl)-2-fluorobenzyl)-1,2,4-oxadiazole-5-carboxamide] | 0.51 | > 10000 |
| Cc1cc(-c2ncnc3[nH]c(-c4ccc(N5CCN(CC6CCN(c7cc(F)ccc7N7CCC(=O)NC7=O)CC6)CC5)cc4)cc23)ccc1[C@@H](C)NC(=O)c1nc(C(C)(C)C)no1 [Example 43, (R)-3-(tert-butyl)-N-(1-(4-(6-(4-(4-((1-(2-(2,4-dioxotetrahydropyrimidin-1(2H)-yl)-5-fluorophenyl)piperidin-4-yl)methyl)piperazin-1-yl)phenyl)-7H-pyrrolo[2,3-d]pyrimidin-4-yl)-2-methylphenyl)ethyl)-1,2,4-oxadiazole-5-carboxamide] | > 2000 | > 10000 |
| Cc1cc(-c2ncnc3[nH]c(-c4ccc(N5CCN(CC6CCN(c7ccc(N8CCC(=O)NC8=O)c(C)c7)CC6)CC5)cc4)cc23)ccc1[C@@H](C)NC(=O)c1nc(C(C)(C)C)no1 [Example 44, (R)-3-(tert-butyl)-N-(1-(4-(6-(4-(4-((1-(4-(2,4-dioxotetrahydropyrimidin-1(2H)-yl)-3-methylphenyl)piperidin-4-yl)methyl)piperazin-1-yl)phenyl)-7H-pyrrolo[2,3-d]pyrimidin-4-yl)-2-methylphenyl)ethyl)-12,4-oxadiazole-5-carboxamide] | 1.2 | > 10000 |
| COc1cc(N2CCC(CN3CCN(c4ccc(-c5cc6c(-c7ccc([C@@H](C)NC(=O)c8nc(C(C)(C)C)no8)c(C)c7)ncnc6[nH]5)cc4)CC3)CC2)ccc1N1CCC(=O)NC1=O [Example 45, (R)-3-(tert-butyl)-N-(1-(4-(6-(4-(4-((1-(4-(2,4-dioxotetrahydropyrimidin-1(2H)-yl)-3-methoxyphenyl)piperidin-4-yl)methyl)piperazin-1-yl)phenyl)-7H-pyrrolo[2,3-d]pyrimidin-4-yl)-2-methylphenyl)ethyl)-1,2,4-oxadiazole-5-carboxamide] | 1.8 | > 10000 |
| Cc1cc(-c2ncnc3[nH]c(-c4ccc(N5CCN(CC6CCN(c7ccc(N8CCC(=O)NC8=O)cc7)CC6)CC5)cc4)cc23)ccc1CNC(=O)c1csc(C(C)(C)C)n1 [Example 46, 2-(tert-butyl)-N-(4-(6-(4-(4-((1-(4-(2,4-dioxotetrahydropyrimidin-1(2H)-yl)phenyl)piperidin-4-yl)methyl)piperazin-1-yl)phenyl)-7H-pyrrolo[2,3-d]pyrimidin-4-yl)-2-methylbenzyl)thiazole-4-carboxamide] | 5.3 | > 10000 |
